Columns and labels:
BAT = assay: cAMP levels in BAT of mice fed high fat diet with CA; type: in vivo, mouse; conditions: mice fed high fat diet with CA vs control mice
Experimental: (§1) An OGTT was performed in animals that were fasted overnight. Glucose was administered by gavage at a dose of 2 g/kg. An IPITT was done in 4 h fasted animals. Insulin was injected at a dose of 0.75 U/kg. Glucose quantification was done with the Maxi Kit Glucometer 4 (Bayer Diagnostic, Puteaux, France) or Glucose RTU (bioMérieux Inc., Marcy l'Etoile, France). Plasma insulin concentrations were measured using ELISA (Cristal Chem Inc., Downers Grove, Ill.). Nonesterified fatty acids, triglycerides, ketone bodies, BA and total cholesterol were determined by enzymatic assays (Roche, Mannheim, Germany). cAMP was measured using the cAMP-Screen system (Applied Biosystems, Bedford, Mass.).

C57BL/6J mice [1] = assay: LXR agonist-induced lipogenesis in C57BL/6J mice with or without CA; type: in vivo, mouse
Experimental: (§2) Male C57BL/6J, KK-Ay, and ob/ob (C57BL/6J background) mice, 6-10 weeks of age, were obtained from Elevage Janvier (Le Genest St. Isle, France), CLEA Japan Inc. (Tokyo, Japan), and The Jackson Laboratory (Bar Harbor, Me., USA), respectively. All mice were maintained in a temperature-controlled (23° C.) facility with a 12-hour light/dark cycle and were given free access to food and water. The study protocols were approved by the institutional review boards. The body weight and food intake were measured every second day. The control and high-fat diet was obtained from UAR (Villemoisson sur Orge, France). […] The mice were fasted 4 hours before harvesting blood for subsequent lipid measurements, and tissues for RNA isolation, lipid measurements, and histology.
Mice were gavaged with the LXR agonist T0901317 or vehicle, and the different diets were continued for one more day, after which the mice were sacrificed.

KK-Ay mice [2] = assay: CA or GW4064 treatment of KK-Ay mice, serum lipids; type: in vivo, mouse; conditions: KK-Ay mice; for lowered circulating TG levels / total plasma cholesterol decreased: 1 week
Experimental: as §2
(§3) For measurement of liver TGs and cholesterol content, a liver was homogenized in chloroform/methanol (2:1 v/v) using a Polytron tissue grinder (Kinematica AG, Luzern, Switzerland). Lipid extracts were prepared by the classical Folch method. Extracts were dried under N2 flow and resuspended in isopropanol.

C57BL/6J mice [3] = assay: Diet-induced obesity in C57BL/6J mice; type: in vivo, mouse
Experimental: (§4) Male C57BL/6J and KK-Ay mice, 6-7 weeks of age, were obtained from Charles River Laboratories France (l'Arbresle, France) and CLEA Japan Inc. (Tokyo, Japan), respectively. […] All mice were maintained in a temperature-controlled (23° C.) facility with a 12 h light/dark cycle and were given free access to food and water. The control and high-fat diet was obtained from UAR (Villemoison surOrge, France). […] GW4064 was suspended in peanut oil and mixed with the high fat diet at a concentration of 180 mg per kg of food. […] The mice were fasted 4 h before harvesting blood for subsequent blood measurements, and tissues for RNA isolation, lipid measurements and histology. Oxygen consumption was measured using the Oxymax apparatus (Columbus Instruments, Columbus, Ohio).
as §1
Pieces of mouse tissues were fixed in Bouin's solution, dehydrated in ethanol, embedded in paraffin, and cut at a thickness of 5 μm. Sections were deparaffinized, rehydrated, and stained with haematoxylin and eosin. Transmission electron microscopy was then performed.

mouse SREBP-1c promoter = assay: SREBP-1c promoter luciferase reporter assay in McA-RH7777 cells; type: cell-based; conditions: McA-RH7777 rat hepatoma cells, LXRα transfection and/or LXR and RXR agonists
Experimental: The LXR response elements in pSREBP-1c324-Luc were mutated for promoter analysis using the Quick Change Site-Directed Mutagenesis Kit (Stratagene, La Jolla, Calif., USA).
The rat hepatoma cell line McA-RH7777 was obtained from ATCC (Manassas, Va., USA). […] Transfections were performed in 96-well plates using Lipofectamine 2000 (Invitrogen, Cergy Pontoise, France). Each well contained 64 ng luciferase reporter and 4 ng of β-galactosidase expression plasmid. We transfected 16 ng RXRα, 16 ng LXRα, 16 ng LRH-1, 32 ng SHP expression plasmids, or the corresponding empty expression vectors. After 6 hours of incubation with the DNA-lipofectamine complexes, the transfection medium was exchanged for medium with or without the indicated ligands. Ligands for LXR and RXR were dissolved in ethanol or DMSO and added to the cells in DMEM supplemented with 10% lipoprotein-deficient serum. To suppress SREBP-1c activation by processing, leading to feed-forward induction of SREBP-1c expression, the medium used for the SREBP-1c promoter study was also supplemented with 10 μg/ml cholesterol and 1 μg/ml 25-hydroxycholesterol. Luciferase measurements were normalized to β-galactosidase activity.

wildtype and D2-/- mice = assay: Diet-induced obesity in D2-/- mice and littermate controls; type: in vivo, mouse
Experimental: as §4
Next, we used mice with a targeted disruption of the D2 gene (D2−/− mice) and littermate controls in a diet-induced obesity study for 50 days.

humans = conditions: cited from earlier work
KK-Ay mice [4] = assay: CA in KK-Ay mice, body weight, OGTT and IPITT; type: in vivo, mouse
Experimental: as §4, §1

KK-Ay mice [5] = assay: Liver TG and cholesterol content and histology in KK-Ay mice; type: in vivo, mouse
Experimental: as §2, §3

BAT of C57BL/6J mice = assay: BAT gene expression by microarray and Q-RT-PCR; type: in vivo, mouse
Experimental: For microarray analysis, RNA was isolated from BAT using the RNeasy mini kit (QIAGEN, Courtaboeuf, France). Equal amounts of RNA from mice in each group were pooled (n=3 or 4 mice) and used for cDNA synthesis. After second-strand cDNA synthesis (Life Technologies, Cergy Pontoise, France), in vitro transcription was performed with biotinylated UTP and CTP (Enzo Diagnostics, Farmingdale, N.Y.). Fragmented cRNA samples were hybridized to the Affymetrix MOE430A microarray. The raw data was analyzed using the Microarray Suite Software version 5.0 (MAS5.0, Affymetrix, Santa Clara, Calif.).

TGR5 = molecular target: T1, TGR5 (Homo sapiens, UniProt Q8TDU6); assay: cAMP response element (CRE)-luciferase reporter assay with TGR5; type: cell-based; conditions: cells co-transfected with TGR5 expression plasmid and CRE-driven luciferase reporter
T1 construct: expressed in transfected cells
T1 sequence (Q8TDU6 1-330): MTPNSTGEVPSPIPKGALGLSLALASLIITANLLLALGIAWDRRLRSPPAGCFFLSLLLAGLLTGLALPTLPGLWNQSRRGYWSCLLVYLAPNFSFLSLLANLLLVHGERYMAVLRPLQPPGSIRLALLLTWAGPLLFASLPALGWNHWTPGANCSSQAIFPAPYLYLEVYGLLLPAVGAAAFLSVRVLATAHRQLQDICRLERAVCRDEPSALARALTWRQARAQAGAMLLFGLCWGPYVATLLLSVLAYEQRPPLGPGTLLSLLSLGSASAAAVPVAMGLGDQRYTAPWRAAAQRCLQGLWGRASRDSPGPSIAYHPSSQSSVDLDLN
Source text: Since a synthetic FXRα agonist was unable to phenocopy the effects of BAs on energy expenditure, we focused our attention on FXRα-independent signaling events stimulated by BAs. […] We used a cAMP response element (CRE)-luciferase reporter assay to confirm that TGR5 is a BA receptor.
We used quantitative RT-PCR to measure the expression of D2 and TGR5 mRNAs in selected mouse tissues.

SHP+/+ and SHP-/- mice = assay: FXR agonists in SHP+/+ and SHP-/- mice; type: in vivo, mouse; conditions: for hepatic expression of SREBP-1c, ME, CYP7A1 and ANGPTL3: 1-day treatment
Experimental: as §2

[6] = CA coadministration with T0901317
[7] = CA feeding, HPLC of lipoproteins
[8] = high fat diet supplemented with CA, histology
[9] = KK-Ay mice, CA added to normal chow diet

In the case of `C[C@H](CCC(=O)O)[C@H]1CC[C@H]2[C@@H]3[C@H](O)C[C@@H]4C[C@H](O)CC[C@]4(C)[C@H]3C[C@H](O)[C@]12C` [CA, cholic acid], the “cAMP levels in BAT” value (BAT) is reported as “significantly elevated”, the SHP expression (C57BL/6J mice [1]; [6]) is reported as “increased SHP expression” and the “SREBP-1c and its target genes” value (C57BL/6J mice [1]; [6]) is reported as “prevented the induction”. For the same molecule, the “LXR agonist induction of liver weight and serum TGs” value (C57BL/6J mice [1]; coadministration of 0.5% CA with T0901317) was “completely prevented”, the HDL cholesterol (KK-Ay mice [2]; [7]) was “decreasing HDL cholesterol” and the “VLDL TGs” value (KK-Ay mice [2]; [7]) was “decreasing VLDL TGs”. The “plasma FFAs” value (KK-Ay mice [2]; CA feeding, particularly on high-fat diet) was “decreased plasma FFAs”, the “lowered circulating TG levels” value (KK-Ay mice [2]; high-fat diet with 0.5% CA) was 65% and the “total plasma cholesterol decreased” value (KK-Ay mice [2]; high-fat diet with 0.5% CA) was 35%. For the same molecule, the “lowered circulating TG levels” value (KK-Ay mice [2]; normal-chow diet with 0.5% CA) was 51%, the “total plasma cholesterol decreased” value (KK-Ay mice [2]; normal-chow diet with 0.5% CA) was 24% and the glucose tolerance (C57BL/6J mice [3]; C57BL/6J mice with diet-induced obesity) was “improves glucose tolerance”. The body weight gain (C57BL/6J mice [3]; chow diet supplemented with CA) was “no effect”, the “high fat-induced changes in adipose mass and morphology” value (C57BL/6J mice [3]; diet supplementation with CA) was “completely prevented” and the weight gain (C57BL/6J mice [3]; high fat diet supplemented with 0.5% CA) was “reduced the weight gain”. The “adipocyte hypertrophy in WAT and BAT” value (C57BL/6J mice [3]; [8]) was “not observed”, the liver steatosis (C57BL/6J mice [3]; [8]) was “reversed” and the “120-days of diet-induced weight gain” value (C57BL/6J mice [3]; obese mice switched to high fat diet containing CA) was “reversed”. The “time to return to normal body weight” value (C57BL/6J mice [3]; obese mice switched to high fat diet containing CA (F-FA)) was at most 30 days, the “increase of SREBP-1c promoter activity” value (mouse SREBP-1c promoter) was “attenuated” and the development of obesity (wildtype and D2-/- mice; D2-/- mice, CA added to high fat diet, 50 days) was “no effect”. The diet induced obesity (wildtype and D2-/- mice; wildtype mice, CA added to high fat diet, 50 days) was “prevented diet induced obesity”, the “expression of PGC-1α in BAT” value (wildtype and D2-/- mice; wildtype mice, CA feeding) was “significantly induced” and the hepatotoxicity (humans) was “significant hepatotoxicity”. For the same molecule, the body weight (KK-Ay mice [4]; [9]) was “decreased body weight”, the “metabolic control (oral glucose tolerance test, intraperitoneal insulin tolerance test)” value (KK-Ay mice [4]; [9]) was “improved metabolic control” and the insulin sensitivity (KK-Ay mice [4]; KK-Ay mouse) was “improve insulin sensitivity”. For the same molecule, the “liver TGs content” value (KK-Ay mice [5]; CA 3 weeks, chow or high-fat diet) was “significantly lower”, the hepatic cholesterol (KK-Ay mice [5]; CA 3 weeks, particularly high-fat diet) was “increased hepatic cholesterol” and the “neutral lipids in liver sections (Oil Red O)” value (KK-Ay mice [5]; high-fat diet with CA, 3 weeks) was “accumulated less neutral lipids”. For the same molecule, the “expression of PGC-1α, PGC-1β, UCP-1, UCP-3, ACO, mCPT-I and D2 in BAT” value (BAT of C57BL/6J mice; C57BL/6J mice fed 47 days, diet mixed with CA, Q-RT-PCR) was “significantly increased”, the “genes involved in control of energy expenditure incl. D2 in BAT (microarray)” value (BAT of C57BL/6J mice; high fat diet mixed with CA or CDCA for 9 days) was “upregulated” and the luciferase expression (TGR5) was “increased luciferase expression in a dose-dependent manner”. For the same molecule, the “serum TGs” value (SHP+/+ and SHP-/- mice; SHP+/+ mice, 0, 3 and 7 days) was “significantly lowered”, the “hepatic expression of SREBP-1c, ME, CYP7A1 and ANGPTL3” value (SHP+/+ and SHP-/- mice; SHP+/+ mice) was “significantly reduced” and the “decrease in serum TGs” value (SHP+/+ and SHP-/- mice; SHP-/- mice) was “completely abolished”. For the same molecule, the “hepatic expression of SREBP-1c, ME, CYP7A1 and ANGPTL3” value (SHP+/+ and SHP-/- mice; SHP-/- mice) was “no decrease”.
